# Results published in paper PMC9605497, “Potential of Epidermal Growth Factor-like Peptide from the Sea Cucumber Stichopus horrens to Increase the Growth of Human Cells: In Silico Molecular Docking Approach” (Marine Drugs, 2022).
# Several values for one entry are separate records, joined by “and”; a condition that tells them apart may be missing. Equal values may be shown once. Entries after “also recorded” stand apart in the source; their conditions may differ.
# Legend:
# [1] = test system: human melanoma cells (CRL-1872); assay: Cell proliferation assay (cell counting); format: cell-based; conditions: for Average cell number: average over 0, 24, 48, 72 and 96 h; for number of cells vs serum-free medium: four days, triplicates; for duration of temporary increment of cell numbers: cell numbers dropped drastically after the medium change
# Experimental: (§1) Human melanoma cells (CRL-1872) were purchased from ATCC, Rocksville, MD, USA. Cells were cultured in a complete growth medium, which consisted of Minimum Essential Medium (MEM) (Gibco, Waltham, MA, USA) supplemented with 10% fetal bovine serum (FBS) (Invitrogen, Waltham, MA, USA) and 1% antibiotic–antimycotic (Invitrogen, Waltham, MA, USA), in a humidified incubator at 37 °C, equilibrated with 5% CO2. Cells were subcultured every two days until reaching confluency in T25 flask (TPP, Trasadingen, Switzerland) before being seeded in designated plates for specific experiment objectives.
# (§2) Cells were seeded at 80,000 cells per well in a 24-well plate containing 400 µL of complete growth medium. After 24 h of culture, the medium was removed, washed once with PBS, replaced with serum-free medium and left to culture for another 16 h. The medium was removed and replaced with corresponding treatment medium, each in triplicates; 10 nM and 50 nM of Sh-EGFl-1, 10 nM and 50 nM of rhEGF were used as a positive control and serum-free medium was used as a negative control. Cells were cultured in a single plate to track their growth every 24 h during the four days of experiment. […] A crossed line was made at the bottom of each well to mark the four cell-counting areas that were recorded daily using a microscope digital camera. Cells were counted manually based on the images visualized using ImageJ version 2.0.
# [2] = test system: human melanoma cells (CRL-1872); assay: Cell morphology observation; format: cell-based
# Experimental: as §1, §2
# human EGFR = assay: Ligand binding assay with biotinylated peptide (NeutrAvidin-HRP/ABTS, 405 nm); conditions: for Relative binding: melanoma cells, 1 h at 37 °C, (OD x nM - OD 0 nM)/OD 0 nM at 405 nm, triplicates; for optimum concentration for binding to EGFR: concentrations tested 10, 50 and 500 nM
# Experimental: An experiment was performed to test the ability of Sh-EGFl-1 peptide interaction with human receptor. Ligand binding assay, adapted from King et al. was performed with modifications using human cells. Both Sh-EGFl-1 and rhEGF were first conjugated with N-hydroxysuccinimidobiotin (NHS-biotin) and were added to human cells. Any binding of peptide to EGFR was detected through the reaction of NeutrAvidin conjugated with horseradish peroxidase enzyme and 2,2′-azino-bis-3-ethylbenzothiazoline-6-sulfonic acid (ABTS) as substrate.
# A short peptide sequence derived from the protein translation of Contig 498513, was submitted to order. The 4.9 kDa Sh-EGFl-1 peptide (H-NINECFSSPCENQGICQDEIDGYNCVCQPGFTGTHCESSMLNHVI-OH) was synthesized by Mimotopes Pty. Ltd., Australia through a Fmoc solid-phase peptide chemistry method. A master stock concentration of 1 mg/mL was prepared by diluting lyophilized peptide with PBS buffer pH 7.4. Recombinant human EGF (rhEGF) (H-MNSDSECPLSHDGYCLHDGVCMYIEALDKYACNCVVGYIGERCQYRDLKWWELR-OH) was purchased from Thermo Scientific. For the cell proliferation assay and morphology observation experiments, peptides were added fresh into the serum-free growth medium to concentrations of 10 nM and 50 nM. For the binding affinity assay experiment, biotinylation of Sh-EGFl-1 and rhEGF peptides with NHS–biotin (Sigma Aldrich, Burlington, MA, USA) was performed according to the manufacturer’s instructions. The diluted peptides in PBS pH 7.4 were changed into carbonate buffer 0.1 M carbonate buffer pH 9.5 (0.07 M sodium bicarbonate, 0.03 M sodium carbonate) for an optimal biotinylation environment. A 10 X volume of cold acetone was added to the peptides and vortexed for 15 s. The mixture was incubated for 30 min at −20 °C before being centrifuged at 16,100× g for 24 min at 4 °C. The supernatant was discarded and the pellet was air-dried and fully dissolved in carbonate buffer pH 9.5. A total of 20 mg/mL of NHS–biotin was prepared in 1 mL DMSO. A volume of 0.13 µL and 0.1 µL of NHS–biotin was added to the Sh-EGFl-1 and rhEGF peptides, respectively. Both reaction mixtures were vortexed for a while and incubated in a thermoblock with 400 rpm shaking speed for 4 h at room temperature. Any unattached biotin molecules were sieved out using a PD-10 desalting column containing Sephadex G-25 medium (GE Life Sciences, Chicago, IL, USA). PBS buffer pH 7.4 was used as eluent to collect the conjugated peptides out from the column. The concentration of the biotin-conjugated peptides was determined using a NanoDrop spectrophotometer (Thermo Scientific, Waltham, MA, USA) and BCA assay.
# Melanoma cells were seeded at 90% confluency in a 96-well plate and cultured in a humidified incubator at 37 °C, equilibrated with 5% CO2 until the next day. When all cells were attached to the surface, the plate was placed on ice for a while to reduce the protein metabolism rate, so the cells were not easily detached. The medium was removed and cells were washed twice using 200 µL of cold PBS buffer. A volume of 100 µL cold formalin was added to the cells to enhance cell attachment to the surface. The plate was placed on ice for the first 5 min, then continued for another 15 min incubation at room temperature. Cells were washed twice using 200 µL of cold PBS. A total of 100 µL of melanoma growth medium (MEM basal medium and 3% FBS) was added and cells were incubated at 37 °C for 30 min. The medium was discarded and replaced with 100 µL of treatment medium (MEM basal medium supplemented with 0.1% BSA, 200 mM HEPES buffer and Sh-EGFl-1 and rhEGF at concentrations of 10, 50 and 500 nM respectively). Cells were incubated at 37 °C for 1 h. The medium was discarded, and cells were washed twice using 200 µL cold PBS and 0.3 M NaCl. A total of 100 µL horseradish peroxidase (HRP) conjugated with NeutrAvidin solution (Thermo Scientific, Waltham, MA, USA) was added with a concentration of 1:10,000 onto cells and incubated at 37 °C for 1 h. […]
# [3] = 50 nM, recovery from serum starvation
Substance,"Average cell numbers ([1]; 0 h, 10 nM)","Average cell numbers ([1]; 0 h, 50 nM)",number of cells vs serum-free medium ([1]; 50 nM),duration of temporary increment of cell numbers ([1]; 50 nM) [h],"Average cell numbers ([1]; 24 h, 10 nM)","Average cell numbers ([1]; 24 h, 50 nM)","Average cell numbers ([1]; 48 h, 10 nM)","Average cell numbers ([1]; 48 h, 50 nM)","Average cell numbers ([1]; 72 h, 10 nM)","Average cell numbers ([1]; 72 h, 50 nM)","Average cell numbers ([1]; 96 h, 10 nM)","Average cell numbers ([1]; 96 h, 50 nM)","cell morphology / attachment [2, 3]",Relative binding (human EGFR; 10 nM) [%],Relative binding (human EGFR; 50 nM),Relative binding (human EGFR; 500 nM),optimum concentration for binding to EGFR (human EGFR) [nM],other results
"H-MNSDSECPLSHDGYCLHDGVCMYIEALDKYACNCVVGYIGERCQYRDLKWWELR-OH (disulfide) [rhEGF, Recombinant human EGF purchased from Thermo Scientific, reference compound]",2115,1331,significantly higher,48,712,1643,399,1741,497,663,339,438,better recovery as the cells were elongated when they attached to the flask surface,12,4% and 3.62%,7.57%,10,Average cell number ([1]; 10 nM): 810; Average cell number ([1]; 50 nM): 1166
"H-NINECFSSPCENQGICQDEIDGYNCVCQPGFTGTHCESSMLNHVI-OH (disulfide) [Sh-EGFl-1, 45 amino acid EGF-like peptide from Stichopus horrens contig 498513, synthesized by Fmoc solid-phase peptide chemistry]",1781,1382,significantly higher,48,1413,1637,1559,1753,1674,1094,1816,862,better recovery as the cells were elongated when they attached to the flask surface,5,-0.68%,~10% and 10%,500,"number of cells vs serum-free medium ([1]; 10 nM): not significantly different compared with the serum-free treatment; cell number over time ([1]; 10 nM, until day 4): increased numbers until the end of the experiment on day 4; human cell growth ([1]; lower concentration, cell proliferation assay): significantly improved; cell adherence, survival and proliferation ([1]; melanoma cells): cells are able to maintain their adherent properties, as well as survive and proliferate, albeit rather slowly; cell morphology / attachment ([2]; 10 nM, recovery from serum starvation and after medium change at 48 h): better recovery as the cells were elongated when they attached to the flask surface; also recorded: most of the cells to lose attachment from the flask except in the presence of 10 nM Sh-EGFl-1"
